Laboratory results from ChEMBL document CHEMBL1146270, “Identification of potent and selective TACE inhibitors via the S1 pocket” (Bioorg Med Chem Lett, 2007).

Legend:
[1] = target: T1, Disintegrin and metalloproteinase domain-containing protein 17 (Homo sapiens, UniProt P78536); assay: Inhibition of TACE
Collagenase 3 = Collagenase 3 (Homo sapiens, UniProt P45452)
[2] = target: 72 kDa type IV collagenase (Homo sapiens, UniProt P08253); assay: Inhibition of MMP2
[3] = target: Matrix metalloproteinase-14 (Homo sapiens, UniProt P50281); assay: Inhibition of MMP14
Interstitial collagenase = target: T2, Interstitial collagenase (Homo sapiens, UniProt P03956); assay: Inhibition of MMP1
T2 sequence (P03956 whole entry): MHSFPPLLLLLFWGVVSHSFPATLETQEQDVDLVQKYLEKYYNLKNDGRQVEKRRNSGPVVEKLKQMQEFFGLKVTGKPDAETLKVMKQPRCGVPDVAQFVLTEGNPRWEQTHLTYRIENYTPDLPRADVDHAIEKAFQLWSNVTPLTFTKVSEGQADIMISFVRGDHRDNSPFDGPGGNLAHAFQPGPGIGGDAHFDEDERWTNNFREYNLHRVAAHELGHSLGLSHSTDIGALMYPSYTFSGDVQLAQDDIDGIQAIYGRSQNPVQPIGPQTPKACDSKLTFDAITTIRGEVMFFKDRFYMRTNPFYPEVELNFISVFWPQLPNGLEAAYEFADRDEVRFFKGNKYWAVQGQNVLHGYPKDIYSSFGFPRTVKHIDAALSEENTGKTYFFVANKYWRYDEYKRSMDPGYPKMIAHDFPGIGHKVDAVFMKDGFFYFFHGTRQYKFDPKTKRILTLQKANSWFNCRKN

[4] = target: Matrix metalloproteinase-9 (Homo sapiens, UniProt P14780); assay: Inhibition of MMP9
Sequence of Matrix metalloproteinase-9 (P14780 whole entry): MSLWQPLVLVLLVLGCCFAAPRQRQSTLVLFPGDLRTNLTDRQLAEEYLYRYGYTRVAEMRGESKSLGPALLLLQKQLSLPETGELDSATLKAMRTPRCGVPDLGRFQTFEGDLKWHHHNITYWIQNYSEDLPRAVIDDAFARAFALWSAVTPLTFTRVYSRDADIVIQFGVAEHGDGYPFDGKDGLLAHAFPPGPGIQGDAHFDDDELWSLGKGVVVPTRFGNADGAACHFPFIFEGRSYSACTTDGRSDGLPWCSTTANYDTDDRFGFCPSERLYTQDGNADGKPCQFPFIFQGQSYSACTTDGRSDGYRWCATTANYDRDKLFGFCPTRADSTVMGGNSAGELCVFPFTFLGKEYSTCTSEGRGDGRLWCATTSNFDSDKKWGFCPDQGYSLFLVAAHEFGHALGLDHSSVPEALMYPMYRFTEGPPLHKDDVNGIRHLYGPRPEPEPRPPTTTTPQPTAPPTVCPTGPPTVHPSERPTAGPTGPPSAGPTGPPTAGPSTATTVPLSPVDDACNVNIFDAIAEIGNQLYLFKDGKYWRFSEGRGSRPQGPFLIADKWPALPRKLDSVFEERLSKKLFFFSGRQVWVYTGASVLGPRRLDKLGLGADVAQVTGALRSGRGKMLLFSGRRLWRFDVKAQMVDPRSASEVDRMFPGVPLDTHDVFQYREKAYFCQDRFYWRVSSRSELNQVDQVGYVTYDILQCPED

Stromelysin-1 = Stromelysin-1 (Homo sapiens, UniProt P08254); assay: Inhibition of MMP3
Sequence of Stromelysin-1 (P08254 whole entry, the tested form may be a part): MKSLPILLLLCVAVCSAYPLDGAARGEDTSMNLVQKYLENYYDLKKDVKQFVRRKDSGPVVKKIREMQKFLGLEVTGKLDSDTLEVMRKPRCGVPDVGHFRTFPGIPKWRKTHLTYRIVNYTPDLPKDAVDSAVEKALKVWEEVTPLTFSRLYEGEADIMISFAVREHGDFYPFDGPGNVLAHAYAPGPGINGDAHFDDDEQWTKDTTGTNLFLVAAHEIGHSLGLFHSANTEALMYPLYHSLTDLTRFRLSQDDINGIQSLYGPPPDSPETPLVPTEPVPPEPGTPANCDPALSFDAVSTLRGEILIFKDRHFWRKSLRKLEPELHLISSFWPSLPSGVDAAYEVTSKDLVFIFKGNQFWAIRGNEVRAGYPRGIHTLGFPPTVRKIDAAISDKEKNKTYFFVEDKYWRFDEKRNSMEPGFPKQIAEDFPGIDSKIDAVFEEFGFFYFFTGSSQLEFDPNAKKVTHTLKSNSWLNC

[5] = target: T1, Disintegrin and metalloproteinase domain-containing protein 17
Description: Inhibition of TACE in human whole blood assay

Sequence of 72 kDa type IV collagenase (P08253 whole entry): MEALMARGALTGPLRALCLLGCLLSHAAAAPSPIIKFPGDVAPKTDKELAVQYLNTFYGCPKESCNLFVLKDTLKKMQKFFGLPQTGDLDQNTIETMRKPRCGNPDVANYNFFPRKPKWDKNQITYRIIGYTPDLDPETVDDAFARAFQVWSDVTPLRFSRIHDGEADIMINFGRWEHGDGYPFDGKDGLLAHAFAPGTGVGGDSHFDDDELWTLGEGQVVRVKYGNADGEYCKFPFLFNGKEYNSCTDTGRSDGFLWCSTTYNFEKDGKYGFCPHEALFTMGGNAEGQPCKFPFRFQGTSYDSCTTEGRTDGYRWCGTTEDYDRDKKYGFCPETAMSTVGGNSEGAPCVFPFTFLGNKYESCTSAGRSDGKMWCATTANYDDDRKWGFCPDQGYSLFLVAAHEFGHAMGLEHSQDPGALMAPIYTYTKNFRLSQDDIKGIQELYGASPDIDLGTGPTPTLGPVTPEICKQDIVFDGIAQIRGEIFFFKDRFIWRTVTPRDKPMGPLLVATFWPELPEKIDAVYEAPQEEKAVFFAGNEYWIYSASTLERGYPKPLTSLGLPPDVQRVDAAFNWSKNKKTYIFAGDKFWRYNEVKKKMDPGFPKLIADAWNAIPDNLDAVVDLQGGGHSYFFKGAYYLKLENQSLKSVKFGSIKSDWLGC
T1 sequence (P78536 whole entry, the tested form may be a part): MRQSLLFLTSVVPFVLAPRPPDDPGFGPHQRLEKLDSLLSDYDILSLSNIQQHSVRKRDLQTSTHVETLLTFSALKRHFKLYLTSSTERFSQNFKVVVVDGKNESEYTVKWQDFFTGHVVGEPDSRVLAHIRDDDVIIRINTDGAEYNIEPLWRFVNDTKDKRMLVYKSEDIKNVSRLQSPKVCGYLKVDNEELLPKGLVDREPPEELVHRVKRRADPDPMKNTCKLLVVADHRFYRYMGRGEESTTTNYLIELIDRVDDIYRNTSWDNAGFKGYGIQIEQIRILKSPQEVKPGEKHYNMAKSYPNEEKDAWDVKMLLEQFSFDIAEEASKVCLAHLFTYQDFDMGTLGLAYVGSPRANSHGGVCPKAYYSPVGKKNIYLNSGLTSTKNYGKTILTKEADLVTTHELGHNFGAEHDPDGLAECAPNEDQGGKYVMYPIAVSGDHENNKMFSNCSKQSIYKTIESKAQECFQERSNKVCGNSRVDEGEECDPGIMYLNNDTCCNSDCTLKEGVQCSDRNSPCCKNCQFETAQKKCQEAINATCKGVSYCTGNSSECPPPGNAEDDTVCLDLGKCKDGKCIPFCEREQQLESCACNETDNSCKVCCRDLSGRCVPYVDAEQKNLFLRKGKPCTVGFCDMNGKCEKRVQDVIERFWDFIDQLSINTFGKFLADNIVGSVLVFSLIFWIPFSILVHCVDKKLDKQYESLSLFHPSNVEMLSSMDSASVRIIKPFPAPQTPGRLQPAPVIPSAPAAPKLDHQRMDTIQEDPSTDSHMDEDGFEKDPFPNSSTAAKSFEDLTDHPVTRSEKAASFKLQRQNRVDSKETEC

| Compound | IC50 [1] [nM] | IC50 (Collagenase 3) [nM] | IC50 [2] [nM] | IC50 [3] [µM] | IC50 (Interstitial collagenase) [nM] | IC50 [4] [µM] | IC50 (Stromelysin-1) [nM] | IC50 [5] [nM] |
| --- | --- | --- | --- | --- | --- | --- | --- | --- |
| CC#CCOc1ccc(S(=O)(=O)CC2(C(=O)NO)CCN(S(=O)(=O)c3cn(C)c(C)n3)CC2)cc1 | 3 | 147 | 19 |  |  |  |  |  |
| CC#CCOc1ccc(S(=O)(=O)CC2(C(=O)NO)CCN(C(=O)c3ccncc3)CC2)cc1 | 2.6 | 21.5 |  | 0.583 |  |  |  |  |
| Cc1cc(COc2ccc([C@]3(C)CCN([C@H](C)C(=O)NO)C3=O)cc2)c2ccccc2n1 |  | 1420 | 2050 |  | 30000 | 10.3 | 141 |  |
| CC#CCOc1ccc(S(=O)(=O)CC2(C(=O)NO)CCN(S(=O)(=O)C(CC)CC)CC2)cc1 | 1.2 | 136 | 58 |  |  |  |  |  |
| CC#CCOc1ccc(S(=O)(=O)CC2(C(=O)NO)CCN(Cc3c(Cl)cncc3Cl)CC2)cc1 |  | 259 | 555 | 14.8 | 2680 | 0.92 |  |  |
| CC#CCOc1ccc(S(=O)(=O)CC2(C(=O)NO)CCN(S(=O)(=O)CC3CCCCC3)CC2)cc1 | < 1 | 72 | 11 |  |  |  |  |  |
| CC#CCOc1ccc(S(=O)(=O)CC2(C(=O)NO)CCN(S(=O)(=O)C(C)CN3CCOCC3)CC2)cc1 (stereo unspecified) | 1.4 | 130 | 37 |  |  |  |  |  |
| CC#CCOc1ccc(S(=O)(=O)CC2(C(=O)NO)CCN(S(=O)(=O)C3CC3)CC2)cc1 | 1.6 | 1160 | 161 |  |  |  |  |  |
| CC#CCOc1ccc(S(=O)(=O)CC2(C(=O)NO)CCN(S(=O)(=O)N3CCOCC3)CC2)cc1 | 1 | 195 | 51 |  |  |  |  |  |
| CC#CCOc1ccc(S(=O)(=O)CC2(C(=O)NO)CCN(S(=O)(=O)c3c(C)noc3C)CC2)cc1 |  | 2280 | 664 | 24 |  |  |  |  |
| CC#CCOc1ccc(S(=O)(=O)CC2(C(=O)NO)CCN(S(=O)(=O)C3CCCCC3)CC2)cc1 | 2.8 | 24.4 | 4 |  |  |  |  |  |
| CC#CCOc1ccc(S(=O)(=O)CC2(C(=O)NO)CCN(S(=O)(=O)N3CCCC3)CC2)cc1 | 1 | 117 | 31 |  |  |  |  |  |
| CC#CCOc1ccc(S(=O)(=O)CC2(C(=O)NO)CCN(C(=O)c3c(Cl)cncc3Cl)CC2)cc1 | 1.7 | 449 | 183 |  |  |  |  | 1300 |
| CC#CCOc1ccc(S(=O)(=O)N2CCSC(C)(C)C2C(=O)NO)cc1 (stereo unspecified) | 9 |  |  |  | 201 |  |  |  |
| CC#CCOc1ccc(S(=O)(=O)CC2(C(=O)NO)CCN(S(=O)(=O)CCN3CCOCC3)CC2)cc1 | 2.2 | 43 | 37 |  |  |  |  |  |
| CC#CCOc1ccc(S(=O)(=O)CC2(C(=O)NO)CCN(S(=O)(=O)N(C)C)CC2)cc1 | 1.8 | 229 | 61.3 |  |  |  |  |  |

| Compound | IC50 [1] [nM] | IC50 (Collagenase 3) [nM] | IC50 [2] [nM] | IC50 [3] [µM] | IC50 (Interstitial collagenase) [nM] | IC50 [4] [µM] | IC50 (Stromelysin-1) [nM] | IC50 [5] [nM] |
| --- | --- | --- | --- | --- | --- | --- | --- | --- |
| CC#CCOc1ccc(S(=O)(=O)CC2(C(=O)NO)CCN(c3nc4ccccc4n3C)CC2)cc1 | < 1 | 166 | 176 |  |  |  |  |  |
| CC#CCOc1ccc(S(=O)(=O)CC2(C(=O)NO)CCN(c3ccncc3)CC2)cc1 | 5.6 | 2040 | 2060 |  |  |  |  |  |
| CC#CCOc1ccc(S(=O)(=O)CC2(C(=O)NO)CCN(S(=O)(=O)c3c(C)nn(C)c3C)CC2)cc1 | < 1 | 385 | 99.5 |  |  |  |  |  |
| CC#CCOc1ccc(S(=O)(=O)CC2(C(=O)NO)CCN(S(=O)(=O)N3CCC[C@@H]3CO)CC2)cc1 | 1.4 | 354 | 172 |  |  |  |  |  |
| CC#CCOc1ccc(S(=O)(=O)CC2(C(=O)NO)CCN(S(=O)(=O)c3nc(C)sc3C)CC2)cc1 | < 1 | 38 | 32 |  |  |  |  |  |
| CC#CCOc1ccc(S(=O)(=O)CC2(C(=O)NO)CCN(c3ccccn3)CC2)cc1 | 1.33 | 205 | 62.6 |  |  |  |  |  |
| CC#CCOc1ccc(S(=O)(=O)CC2(C(=O)NO)CCN(S(=O)(=O)C(C)(C)C)CC2)cc1 | < 1 | 238 | 73 |  |  |  |  |  |
| CC#CCOc1ccc(S(=O)(=O)CC2(C(=O)NO)CCN(S(=O)(=O)c3cc(Cl)sc3Cl)CC2)cc1 | < 1 | 23 | 22 |  |  |  |  |  |
| CC#CCOc1ccc(S(=O)(=O)CC2(C(=O)NO)CCN(S(=O)(=O)Cc3ccncc3)CC2)cc1 | 2 | 295 | 82 |  |  |  |  |  |
| CC#CCOc1ccc(S(=O)(=O)CC2(C(=O)NO)CCN(c3nc4ccccc4o3)CC2)cc1 | 1.1 | 56 | 40 |  |  |  |  |  |
| CC#CCOc1ccc(S(=O)(=O)CC2(C(=O)NO)CCN(S(=O)(=O)N3CCC[C@H]3COC)CC2)cc1 | 1.5 | 190 | 58 |  |  |  |  |  |
| Cc1cc(COc2ccc(S(=O)(=O)CC(CC3CCN(C(C)(C)C)CC3)N(O)C=O)cc2)c2ccccc2n1 (stereo unspecified) | 12 | 4000 | 5000 |  |  | 90 | 1500 |  |
| CC#CCOc1ccc(S(=O)(=O)CC2(C(=O)NO)CCN(S(=O)(=O)c3ccc(Cl)s3)CC2)cc1 | 7 |  | 33 |  |  |  |  |  |
| CC#CCOc1ccc(S(=O)(=O)CC2(C(=O)NO)CCN(S(=O)(=O)N3CCN(C(C)=O)CC3)CC2)cc1 | 1.5 | 104 | 20 |  |  |  |  |  |
| CC#CCOc1ccc(S(=O)(=O)CC2(C(=O)NO)CCN(S(=O)(=O)C3CCCC3)CC2)cc1 | 1.3 | 155 | 54 |  |  |  |  |  |
| CC#CCOc1ccc(S(=O)(=O)CC2(C(=O)NO)CCN(S(=O)(=O)N3CCCCC3)CC2)cc1 | 1.2 | 144 | 51 |  |  |  |  |  |
